Here are results for five compounds from US11013745B2, “Triazolopyrimidine, triazolopyridine compounds, and the composition thereof for treating PRC2-mediated diseases” (SHANGHAI INSTITUTE OF MATERIA MEDICA, CHINESE ACADEMY OF …, priority 2017, dated 2021).

Like-named read-outs stand apart in the source and are kept apart here.

Series [1] is described as follows: Liver microsomal stability (mouse). The following applies: for Clearance rate in vivo Clint In Vivo Extpl / Intrinsic clearance rate in vivo Clint In Vitro / Liver clearance rate Clint Hep In Vivo Extpl / Metabolic bioavailability MF %: mouse liver microsomes; for half-life: mouse, liver microsomes, pH 7.4, mouse liver microsomes, read-out: Half life T-half. The series is classed as in vitro ADME. A general note: Liver microsomes are vesicles of endoplasmic reticulum, rich in cytochrome P450 enzymes.

The nature of series [2]: Liver microsomal stability (human). The following applies: for Clearance rate in vivo Clint In Vivo Extpl / Intrinsic clearance rate in vivo Clint In Vitro / Liver clearance rate Clint Hep In Vivo Extpl: human liver microsomes; for half-life / bioavailability: human, liver microsomes, pH 7.4, human liver microsomes; for half-life: read-out: Half life T-half; for bioavailability: read-out: Metabolic bioavailability MF %. The class given is in vitro ADME. The method, boiled down:
(§1)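 Human, mouse and rat liver microsomes were incubated with NADPH and MgCl2 in 0.1 M Tris pH 7.4, with compound at a 0.2 μM working solution. Remaining compound was quantified by LC/MS over the incubation time. The slope of log remaining versus time gave Clint, which was scaled to predicted Cl, Clhep and % MF.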

A further series addresses PRC2 enzyme (Homo sapiens (Human), UniProt O75530). In words: PRC2 enzyme activity, TR-FRET method. The class given is biochemical. The procedure, abridged: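 Enzyme preincubated with compound 30 min at room temperature; reaction started with biotin-labeled histone H3 peptide and SAM, run 4 h at room temperature.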
For orientation: In TR-FRET formats the signal depends on donor and acceptor labels being close together.

The test system of series [3] is Pfeiffer cells. Nature of the series: Growth inhibition of Pfeiffer cells in a long term (14 days), CellTiter-Glo. The following applies: Homo sapiens, 336 h, read-out: Pfeiffer (14 days) IC50. The series is classed as cell-based, Human. On the procedure: In a CO2 cell incubator (37° C., 5% CO2), Human diffuse large B-cell lymphoma (DLBCL) cell line, pfeiffer (obtained from ATCC, CRL-2632) were incubated with RPMI 1640 medium (Gibco, purchased from Life Technologies, 22400-089) containing 10% fetal bovine serum (Gibco, purchased from Life Technologies, 10099-141) and 1% antibiotics (penicillin and streptomycin, purchased from Life Technologies, 10378016). […] After seeding the cells, they were placed in a CO2 incubator and allowed to stand for 1 hour. In a 24-well plate containing cells, 2 μL of three-fold gradient of the compounds at 9 different concentrations or DMSO were added to each well, such that the final concentration of the compounds was 0.003-20 μM or 0.3-2000 nM, and the final concentration of DMSO was 0.2%. At day 4, day 7, and day 11 of compound treatment, the fresh medium and compounds were changed, and the cell density of the DMSO control well was diluted to 2*10E5 cells/mL. The cell dilution ratio for other compound wells was the same as that of the DMSO control well. Cell viability was determined by using CellTiter-Glo reagent (purchased from Promega Inc., G7572): cells treated with the compounds for 14 days were transferred to a white 384-well plate (OptiPlate-384, purchased from PerkinElmer, 6007299) at 40 μL/well, an equal volume of CellTiter-Glo reagent was further added. After incubating at room temperature for 10 min, the cold luminescence signal was detected with a multifunctional microplate reader EnVision (PerkinElmer) at a wavelength of 400 to 700 nm. Data were analyzed using GraphPad Prism 5.0 software, and IC50 values were obtained.
A general note: Cellular ATP, detected with luciferase, serves as a proxy for viable cell number.

Another series has as its system Karpas-422 cells. Nature of the series: Growth inhibition of Karpas-422 cells in a long term (11 days), CellTiter-Glo. The series is classed as cell-based, Human. The following applies: Homo sapiens, read-out: Karpas-422 (11 days) IC50.
Series [4] is described as follows: Liver microsomal stability (rat). The series is classed as in vitro ADME. The following applies: for Clearance rate in vivo Clint In Vivo Extpl / Intrinsic clearance rate in vivo Clint In Vitro / Liver clearance rate Clint Hep In Vivo Extpl / Metabolic bioavailability MF %: rat liver microsomes; for half-life: rat, liver microsomes, pH 7.4, rat liver microsomes, read-out: Half life T-half. The procedure, abridged:
as §1

The test system of the next series is SU-DHL-4 cells. Nature of the series: Growth inhibition of SU-DHL-4 cells in a long term (11 days), CellTiter-Glo. The following applies: Homo sapiens, read-out: SU-DHL-4 (11 days) IC50. The series is classed as cell-based, Human.
For series [5], the system named is Pfeiffer cells. Nature of the series: Pfeiffer cell growth inhibition in a long term (11 days), CellTiter-Glo. The class given is cell-based, Human. The following applies: Homo sapiens, 264 h, read-out: Experiment on Pfeiffer cell growth inhibition in a long term (11 days IC50). The procedure, abridged:
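Exponentially growing cells seeded at 1*10E5 cells/mL and treated the same day with a concentration range. Media and compound were refreshed at days 4 and 7. Viability was read by CellTiter-Glo after 11 days and GI50 values were derived.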

Series [6] can be described thus: Oral pharmacokinetics in rats. The class given is in vivo. The following applies: male, SD, plasma, rat, intragastric, 3 mg/kg; for AUC(0-inf): extrapolated to infinity, read-out: AUCINF_obs; for MRT inf: read-out: Average residence time MRTINF_obs; for half-life: read-out: Half life T1/2 (converted); for Cmax: read-out: Peak concentration Cmax. On the procedure: 1. Healthy male SD rats were used as test animals, EED226, […]-07 (3 mg/kg) were administered intragastrically, and the drug concentrations in rat plasma were determined by LC/MS/MS method at different time points after drug administration. The pharmacokinetic behavior of the compounds of the present invention in rats was studied, and the pharmacokinetic properties were evaluated. 2. The test animals were healthy adult male SD rats, with 3 rats in each group, purchased from Shanghai Xipuer-Bikai Laboratory Animal Limited Company. 3. Drug preparation: Compounds EED226, […] were dissolved in DMSO/0.5% HPMC (5/95, v/v) for preparation. The compound SL-ZYE-07 was dissolved in 0.5% HPMC (containing 0.5% Tween 80), vortexed, and sonicated to disperse the solid matter uniformly to obtain a pale white suspension. 4, Operation: EED226, […]-07 were administered to rats by intragastric administration (3 mg/kg), 45 μL of blood was taken through the femoral vein at 0.25, 0.5, 1, 2, 4, 8, 24 hour after administration, and centrifuged in a heparinized centrifuge tube for 5 min, and the plasma samples were separated for analysis. The contents of test compounds in rat plasma after intragastric administration of different compounds were determined by Liquid chromatography-mass spectrometry (LC-MS/MS).

PRC2 enzyme, sequence (O75530 whole entry): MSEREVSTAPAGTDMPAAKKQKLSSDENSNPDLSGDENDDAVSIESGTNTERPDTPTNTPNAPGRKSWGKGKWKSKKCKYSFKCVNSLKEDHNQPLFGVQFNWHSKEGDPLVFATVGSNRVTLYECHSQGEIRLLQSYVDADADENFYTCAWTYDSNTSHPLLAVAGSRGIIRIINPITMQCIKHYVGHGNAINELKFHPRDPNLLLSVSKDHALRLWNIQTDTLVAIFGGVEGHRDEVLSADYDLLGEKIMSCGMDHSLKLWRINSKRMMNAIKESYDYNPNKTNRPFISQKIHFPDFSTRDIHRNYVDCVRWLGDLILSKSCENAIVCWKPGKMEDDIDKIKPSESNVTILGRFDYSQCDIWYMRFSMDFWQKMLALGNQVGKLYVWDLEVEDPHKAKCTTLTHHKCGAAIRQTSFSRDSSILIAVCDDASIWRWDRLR
PRC2 enzyme, sequence (Q15910 whole entry partner): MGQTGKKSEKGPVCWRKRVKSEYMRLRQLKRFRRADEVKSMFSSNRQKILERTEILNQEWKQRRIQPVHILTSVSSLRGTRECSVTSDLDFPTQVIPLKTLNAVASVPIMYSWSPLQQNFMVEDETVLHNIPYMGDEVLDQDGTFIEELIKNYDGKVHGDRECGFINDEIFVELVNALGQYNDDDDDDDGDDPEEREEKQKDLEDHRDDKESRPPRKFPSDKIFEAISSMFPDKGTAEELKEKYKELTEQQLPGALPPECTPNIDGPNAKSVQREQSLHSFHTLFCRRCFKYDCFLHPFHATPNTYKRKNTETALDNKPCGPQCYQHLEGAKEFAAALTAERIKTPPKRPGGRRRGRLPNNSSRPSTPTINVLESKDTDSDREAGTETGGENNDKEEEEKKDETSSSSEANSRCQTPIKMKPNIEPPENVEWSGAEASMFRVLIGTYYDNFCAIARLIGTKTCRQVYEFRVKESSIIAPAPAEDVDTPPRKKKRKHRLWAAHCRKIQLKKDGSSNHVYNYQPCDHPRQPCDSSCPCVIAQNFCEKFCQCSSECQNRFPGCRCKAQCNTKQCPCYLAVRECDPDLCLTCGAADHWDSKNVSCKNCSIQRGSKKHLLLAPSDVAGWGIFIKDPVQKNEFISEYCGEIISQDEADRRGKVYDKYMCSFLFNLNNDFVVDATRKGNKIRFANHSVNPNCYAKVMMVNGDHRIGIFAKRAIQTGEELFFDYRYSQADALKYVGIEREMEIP
PRC2 enzyme, sequence (Q15022 whole entry partner): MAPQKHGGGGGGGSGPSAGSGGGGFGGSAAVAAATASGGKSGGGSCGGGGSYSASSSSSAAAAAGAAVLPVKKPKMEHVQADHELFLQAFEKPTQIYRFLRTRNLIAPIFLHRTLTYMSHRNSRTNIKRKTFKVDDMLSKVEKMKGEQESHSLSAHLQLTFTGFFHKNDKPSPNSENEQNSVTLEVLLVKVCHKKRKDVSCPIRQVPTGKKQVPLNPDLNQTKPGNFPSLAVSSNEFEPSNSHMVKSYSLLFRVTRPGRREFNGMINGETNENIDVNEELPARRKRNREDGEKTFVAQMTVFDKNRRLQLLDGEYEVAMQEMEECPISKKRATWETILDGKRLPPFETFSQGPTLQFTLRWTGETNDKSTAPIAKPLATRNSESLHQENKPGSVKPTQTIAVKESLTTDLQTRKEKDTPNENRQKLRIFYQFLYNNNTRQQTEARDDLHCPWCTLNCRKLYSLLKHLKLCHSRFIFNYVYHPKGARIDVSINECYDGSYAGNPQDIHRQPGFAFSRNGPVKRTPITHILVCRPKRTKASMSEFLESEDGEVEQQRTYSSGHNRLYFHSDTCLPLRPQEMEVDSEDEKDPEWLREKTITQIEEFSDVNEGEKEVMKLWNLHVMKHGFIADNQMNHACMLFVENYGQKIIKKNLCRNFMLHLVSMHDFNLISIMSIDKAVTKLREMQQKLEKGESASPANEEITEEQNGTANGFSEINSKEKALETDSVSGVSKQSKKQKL

With `CC(=O)N1CC=C(c2cnc(NCc3c(F)ccc4c3CCO4)n3cnnc23)CC1` [E-Y15], the “Clearance rate in vivo Clint In Vivo Extpl” value was 5.51 mL/min in [1], 1280 mL/min in series [2] and 64.7 mL/min in series [4]. The entries for the “Intrinsic clearance rate in vivo Clint In Vitro” value (from here on “Intrinsic clearance rate”) in [1], in series [2] and in series [4] were 81.6 mL/min/gprot, 16.7 mL/min/gprot and 144 mL/min/gprot, respectively. Besides, the “Liver clearance rate Clint Hep In Vivo Extpl” value in series [1] came out at 1.94 mL/min; in series [2], 691 mL/min; in [4] it was 15.3 mL/min. In addition, the “Metabolic bioavailability MF %” value in series [1] is listed as 35.3%; in [4] it was 23.6%. For the same compound, the half-life is 0.428 h in [1], 2.1 h in series [2] and 0.243 h in [4]. In addition, the bioavailability – broadly, the share of a dose that reaches the circulation, judged against a reference dose that is usually intravenous – in series [2] was 54%. The IC50 (in general, the point on the concentration scale where inhibition reaches its midpoint) at PRC2 enzyme came to 5.6 nM; with Pfeiffer cells [3] (14 days), 0.7 nM; with Karpas-422 cells (264 h, Karpas-422, 11 days), 7 nM; in the series on SU-DHL-4 cells (264 h, SU-DHL-4, 11 days), 3 nM; with Pfeiffer cells [5] (11 days), 1.9 nM.

Compound `Fc1ccc2c(c1CNc1ncc(C3=CCCOCC3)c3nncn13)CCO2` [SL-ZYE-07] showed a half-maximal inhibitory concentration (IC50) against PRC2 enzyme of 7.3 nM. The IC50 in the series with Pfeiffer cells [3] (14 days) came to 1 nM. Further, in series [6], the AUC(0-t) – broadly, exposure summed from dosing to a finite time, without extrapolation to infinity – worked out at 891 ± 164 ng·h/mL; the AUC(0-inf) was 910 ± 174 ng·h/mL; the MRT inf was 4.71 ± 0.896 h; the half-life was 3.77 ± 1.69 h. In addition, the Cmax in series [6] was 155 ± 34.8 ng/mL. The IC50 in the series with Karpas-422 cells (264 h, Karpas-422, 11 days) was 25 nM. Further, the IC50 with SU-DHL-4 cells (264 h, SU-DHL-4, 11 days) was 5 nM.

With `CS(=O)(=O)c1ccc(-c2cnc(NCc3ccco3)n3cnnc23)cc1` [EED226, reference compound], the IC50 at PRC2 enzyme was determined as 104 nM. In addition, the IC50 in the series on Pfeiffer cells [3] is 44 nM. Further, in [6], the AUC(0-t) worked out at 886 ± 336 ng·h/mL, the AUC(0-inf) is 915 ± 316 ng·h/mL, the MRT inf turned out to be 2.55 ± 1.08 h and the half-life was 1.63 ± 0.411 h. In addition, the Cmax in series [6] turned out to be 464 ± 429 ng/mL. The IC50 in the series on Karpas-422 cells (KARPAS-422, 264 h) stood at 167 nM. Moreover, the IC50 in the series on SU-DHL-4 cells (SU-DHL-4, 264 h) is 95 nM. The IC50 with Pfeiffer cells [5] turned out to be 52 nM.

For `Fc1ccc2c(c1CNc1ncc(C3=CCOCC3)c3nncn13)CCO2` [E-Y1], in [1], the “Clearance rate in vivo Clint In Vivo Extpl” value stood at 1.98 mL/min, the “Intrinsic clearance rate” value came to 29.4 mL/min/gprot, the “Liver clearance rate Clint Hep In Vivo Extpl” value is 1.19 mL/min and the “Metabolic bioavailability MF %” value is reported as 60.2%. The half-life in series [1] stood at 1.19 h. Besides, in [2], the “Clearance rate in vivo Clint In Vivo Extpl” value was 1613 mL/min, the “Intrinsic clearance rate” value is reported as 21.1 mL/min/gprot, the “Liver clearance rate Clint Hep In Vivo Extpl” value is 777 mL/min and the half-life stood at 1.66 h. The bioavailability in [2] was 48.2%. Moreover, in the series with Pfeiffer cells [3] (14 days), the IC50 was found to be 4 nM. For the same compound, in series [6], the AUC(0-t) was found to be 2200 ± 237 ng·h/mL, the AUC(0-inf) was 2200 ± 239 ng·h/mL, the MRT inf amounted to 5.46 ± 0.342 h and the half-life was 2.32 ± 0.268 h. For the same compound, the Cmax in [6] came to 302 ± 6.4 ng/mL. Further, in the series on Karpas-422 cells (264 h, Karpas-422, 11 days), the IC50 came to 19 nM. Further, in series [4], the “Clearance rate in vivo Clint In Vivo Extpl” value was 15.9 mL/min, the “Intrinsic clearance rate” value worked out at 35.2 mL/min/gprot, the “Liver clearance rate Clint Hep In Vivo Extpl” value is 8.85 mL/min and the “Metabolic bioavailability MF %” value is 55.8%. In addition, the half-life in series [4] was determined as 0.993 h. In the series on SU-DHL-4 cells (264 h, SU-DHL-4, 11 days), the IC50 came out at 4 nM. Besides, the concentration for half-maximal inhibition (IC50) with Pfeiffer cells [5] (11 days) came out at 8 nM.

For `O=C(C1CC1)N1CC=C(c2cnc(NCc3c(F)ccc4c3CCO4)n3cnnc23)CC1` [SL-ZYE-162], the IC50 against PRC2 enzyme was found to be 5.2 nM; with Pfeiffer cells [3] (14 days), 1.2 nM; in the series with Karpas-422 cells (264 h, Karpas-422, 11 days), 2.8 nM; in the series with SU-DHL-4 cells (264 h, SU-DHL-4, 11 days), 3.1 nM; in the series with Pfeiffer cells [5] (11 days), 2.7 nM.
